In PubChem BioAssay AID330 (DTP/NCI, 2004):
Inconclusive results and toxic doses are left out.

System: P388 leukemia ip, CD2F1 mice, survival T/C
Test: NCI In Vivo Anticancer Drug Screen. Data for tumor model P388 Leukemia (intraperitoneal) in CD2F1 (CDF1) mice
Settings: endpoint: median survival time, higher = longer survival
Summary of the method: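 Mice carrying the transplanted tumor received test compound or vehicle. Survival was recorded in each group, and the value is the treated-group measurement divided by that of the vehicle-treated control group.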

## BrCC[N+]12CC[N+](CCBr)(CC1)C2 (tested in a mixture with another compound)
dose: 5.0 mg/kg/injection, schedule: Q04DX003 (ip), vehicle: water
  T/C: 107 % of control
dose: 10.0 mg/kg/injection, schedule: Q04DX003 (ip), vehicle: water
  T/C: 114 % of control
dose: 20.0 mg/kg/injection, schedule: Q04DX003 (ip), vehicle: distilled water + Tween-80
  T/C: 122 % of control
dose: 20.0 mg/kg/injection, schedule: Q04DX003 (ip), vehicle: water
  T/C: 100 % of control
dose: 37.5 mg/kg/injection, schedule: Q04DX003 (ip), vehicle: water
  T/C: 112 % of control
dose: 40.0 mg/kg/injection, schedule: Q04DX003 (ip), vehicle: distilled water + Tween-80
  T/C: 107 % of control
dose: 40.0 mg/kg/injection, schedule: Q04DX003 (ip), vehicle: water
  T/C: 104 % of control
dose: 80.0 mg/kg/injection, schedule: Q04DX003 (ip), vehicle: distilled water + Tween-80
  T/C: 118 % of control
dose: 80.0 mg/kg/injection, schedule: Q04DX003 (ip), vehicle: water
  T/C: 110 % of control
dose: 160.0 mg/kg/injection, schedule: Q04DX003 (ip), vehicle: distilled water + Tween-80
  T/C: 116 % of control
dose: 160.0 mg/kg/injection, schedule: Q04DX003 (ip), vehicle: water
  T/C: 112 % of control

## COc1ccc(Cl)[n+]([O-])n1
dose: 6.25 mg/kg/injection, schedule: Q04DX002 (ip), vehicle: Klucel (hydroxypropylcellulose) (HPC)
  T/C: 111 % of control
dose: 12.5 mg/kg/injection, schedule: Q04DX002 (ip), vehicle: Klucel (hydroxypropylcellulose) (HPC)
  T/C: 122 % of control
dose: 25.0 mg/kg/injection, schedule: Q04DX002 (ip), vehicle: Klucel (hydroxypropylcellulose) (HPC)
  T/C: 120 % of control
dose: 25.0 mg/kg/injection, schedule: Q04DX002 (ip), vehicle: saline
  T/C: 104 % of control
dose: 50.0 mg/kg/injection, schedule: Q04DX002 (ip), vehicle: Klucel (hydroxypropylcellulose) (HPC)
  T/C: 117 % of control
dose: 50.0 mg/kg/injection, schedule: Q04DX002 (ip), vehicle: saline
  T/C: 122 % of control
dose: 100.0 mg/kg/injection, schedule: Q04DX002 (ip), vehicle: saline
  T/C: 106 % of control

## CCCC1OCC2OC(Nc3ccccc3)C(O)C(O)C2O1 (stereo unspecified)
dose: 50.0 mg/kg/injection, schedule: Q01DX005 (ip), vehicle: saline with Tween-80
  T/C: 103 % of control
dose: 100.0 mg/kg/injection, schedule: Q01DX005 (ip), vehicle: saline with Tween-80
  T/C: 98 % of control
dose: 200.0 mg/kg/injection, schedule: Q01DX005 (ip), vehicle: saline with Tween-80
  T/C: 103 % of control

## O=Cc1cccc(C=O)c1
dose: 0.63 mg/kg/injection, schedule: Q04DX002 (ip), vehicle: saline with Tween-80
  T/C: 106 % of control
dose: 1.25 mg/kg/injection, schedule: Q04DX002 (ip), vehicle: saline with Tween-80
  T/C: 105 % of control
dose: 2.5 mg/kg/injection, schedule: Q04DX002 (ip), vehicle: saline with Tween-80
  T/C: 107 % of control

## CCO/C=C1\SC(=S)N(c2ccccc2C)C1=O
dose: 2.5 mg/kg/injection, schedule: Q03HX024 (ip), vehicle: saline with Tween-80
  T/C: 105 % of control
dose: 5.0 mg/kg/injection, schedule: Q03HX024 (ip), vehicle: saline with Tween-80
  T/C: 107 % of control
dose: 10.0 mg/kg/injection, schedule: Q03HX024 (ip), vehicle: saline with Tween-80
  T/C: 117 % of control
dose: 14.6 mg/kg/injection, schedule: Q01DX009 (ip), vehicle: saline with Tween-80
  T/C: 105 % of control
dose: 22.0 mg/kg/injection, schedule: Q01DX009 (ip), vehicle: saline with Tween-80
  T/C: 105 % of control
dose: 100.0 mg/kg/injection, schedule: Q01DX009 (ip), vehicle: saline with Tween-80
  T/C: 160 % of control
dose: 100.0 mg/kg/injection, schedule: Q04DX003 (ip), vehicle: saline with Tween-80
  T/C: 116 % of control
dose: 200.0 mg/kg/injection, schedule: Q04DX003 (ip), vehicle: saline with Tween-80
  T/C: 120 % of control

## OC(CN1CCOCC1)c1ccccn1 (stereo unspecified)
dose: 50.0 mg/kg/injection, schedule: Q01DX009 (ip), vehicle: saline
  T/C: 95 % of control
dose: 100.0 mg/kg/injection, schedule: Q01DX009 (ip), vehicle: saline
  T/C: 92 % of control
dose: 200.0 mg/kg/injection, schedule: Q01DX009 (ip), vehicle: saline
  T/C: 92 % of control

## CCCCNCCC1(CCC(C)C)C(=O)NC(=O)NC1=O
dose: 50.0 mg/kg/injection, schedule: Q01DX005 (ip), vehicle: Klucel (hydroxypropylcellulose) (HPC)
  T/C: 96 % of control
dose: 100.0 mg/kg/injection, schedule: Q01DX005 (ip), vehicle: Klucel (hydroxypropylcellulose) (HPC)
  T/C: 105 % of control
dose: 200.0 mg/kg/injection, schedule: Q01DX005 (ip), vehicle: Klucel (hydroxypropylcellulose) (HPC)
  T/C: 101 % of control

## CCCCNC(=O)Nc1cccc2c(O)cccc12
dose: 6.25 mg/kg/injection, schedule: Q01DX009 (ip), vehicle: DMSO
  T/C: 94 % of control
dose: 12.5 mg/kg/injection, schedule: Q01DX009 (ip), vehicle: DMSO
  T/C: 87 % of control
dose: 25.0 mg/kg/injection, schedule: Q01DX009 (ip), vehicle: DMSO
  T/C: 87 % of control
